Test results taken from ChEMBL document CHEMBL6074634, “Design, synthesis, and evaluation of novel oxyacanthine derivatives for anti-SARS-CoV-2 activity” (Bioorg Med Chem Lett, 2024).

System: SARS-CoV-2
Assay: Antiviral activity against SARS CoV-2 infected in african green monkey Vero E6 cells assessed as inhibition of viral growth preincubated with cells for 1 hr followed by viral addition for 1 hr with subsequent compound washout and measured after 24 hrs of compound replacement by qRT-PCR analysis
Assay type: functional, organism-based
Conditions: Severe acute respiratory syndrome coronavirus 2, Vero C1008

| SMILES | IC50 [nM] |
| --- | --- |
| COc1cc2c3cc1Oc1c(OC)c(OC)cc4c1[C@H](Cc1ccc(cc1)Oc1cc(ccc1C1CC1)C[C@H]3N(C)CC2)N(C)CC4 | 2570 |
| COc1ccc(NC(=O)c2ccc3cc2Oc2ccc(cc2)C[C@H]2c4c(cc(OC)c(OC)c4Oc4cc5c(cc4OC)CCN(C)[C@@H]5C3)CCN2C)cc1 | 620 |
| COc1cc2c3cc1Oc1c(OC)c(OC)cc4c1[C@H](Cc1ccc(cc1)Oc1cc(ccc1C(=O)Nc1ccccc1)C[C@H]3N(C)CC2)N(C)CC4 | 2820 |
| C=CC(=O)Nc1ccc2cc1Oc1ccc(cc1)C[C@H]1c3c(cc(OC)c(OC)c3Oc3cc4c(cc3OC)CCN(C)[C@@H]4C2)CCN1C | 1850 |
| COc1cc2c3cc1Oc1c(OC)c(OC)cc4c1[C@H](Cc1ccc(cc1)Oc1cc(ccc1C(=O)NC1CCCC1)C[C@H]3N(C)CC2)N(C)CC4 | 1490 |
| COc1cc2c3cc1Oc1c(OC)c(OC)cc4c1[C@H](Cc1ccc(cc1)Oc1cc(cc([N+](=O)[O-])c1)C[C@H]3N(C)CC2)N(C)CC4 | 720 |
| COc1cc2c3cc1Oc1c(OC)c(OC)cc4c1[C@H](Cc1ccc(cc1)Oc1cc(ccc1C(=O)NC1CC1)C[C@H]3N(C)CC2)N(C)CC4 | 890 |
| COc1cc2c3cc1Oc1c(OC)c(OC)cc4c1[C@H](Cc1ccc(cc1)Oc1cc(ccc1N)C[C@H]3N(C)CC2)N(C)CC4 | > 5000 |
| COc1cc2c3cc1Oc1c(OC)c(OC)cc4c1[C@H](Cc1ccc(cc1)Oc1cc(ccc1C(=O)N1CCCCC1)C[C@H]3N(C)CC2)N(C)CC4 | 1600 |
| COc1cc2c3cc1Oc1c(OC)c(OC)cc4c1[C@H](Cc1ccc(cc1)Oc1cccc(c1)C[C@H]3N(C)CC2)N(C)CC4 | 930 |
| COc1cc2c3cc1Oc1c(OC)c(OC)cc4c1[C@H](Cc1ccc(cc1)Oc1cc(cc(N)c1O)C[C@H]3N(C)CC2)N(C)CC4 | > 5000 |
| COc1cc2c3cc1Oc1c(OC)c(OC)cc4c1[C@H](Cc1ccc(cc1)Oc1cc(ccc1C(C)=O)C[C@H]3N(C)CC2)N(C)CC4 | 1480 |
| C=C(C)c1ccc2cc1Oc1ccc(cc1)C[C@H]1c3c(cc(OC)c(OC)c3Oc3cc4c(cc3OC)CCN(C)[C@@H]4C2)CCN1C | 1090 |
| COc1cc2c3cc1Oc1c(OC)c(OC)cc4c1[C@H](Cc1ccc(cc1)Oc1cc(ccc1C(=O)Nc1ccc(C(F)(F)F)cc1)C[C@H]3N(C)CC2)N(C)CC4 | 2780 |
| COC(=O)c1ccc2cc1Oc1ccc(cc1)C[C@H]1c3c(cc(OC)c(OC)c3Oc3cc4c(cc3OC)CCN(C)[C@@H]4C2)CCN1C | 840 |
| COc1cc2c3cc1Oc1c(OC)c(OC)cc4c1[C@H](Cc1ccc(cc1)Oc1cc(ccc1C)C[C@H]3N(C)CC2)N(C)CC4 | 2450 |
| COc1cc2c3cc1Oc1c(OC)c(OC)cc4c1[C@H](Cc1ccc(cc1)Oc1cc(ccc1C(=O)NC15CC6CC(CC(C6)C1)C5)C[C@H]3N(C)CC2)N(C)CC4 | 1060 |
| COc1cc2c3cc1Oc1c(OC)c(OC)cc4c1[C@H](Cc1ccc(cc1)Oc1cc(ccc1NCc1ccccc1)C[C@H]3N(C)CC2)N(C)CC4 | > 5000 |
| COc1cc2c3cc1Oc1c(OC)c(OC)cc4c1[C@H](Cc1ccc(cc1)Oc1cc(ccc1C(=O)NC(C)C)C[C@H]3N(C)CC2)N(C)CC4 | 1020 |
| COc1cc2c3cc1Oc1c(OC)c(OC)cc4c1[C@H](Cc1ccc(cc1)Oc1cc(ccc1C(=O)O)C[C@H]3N(C)CC2)N(C)CC4 | > 5000 |
| CNc1ccc2cc1Oc1ccc(cc1)C[C@H]1c3c(cc(OC)c(OC)c3Oc3cc4c(cc3OC)CCN(C)[C@@H]4C2)CCN1C | > 5000 |
| COc1cc2c3cc1Oc1c(OC)c(OC)cc4c1[C@H](Cc1ccc(cc1)Oc1cc(ccc1C(N)=O)C[C@H]3N(C)CC2)N(C)CC4 | 550 |
| COc1cc2c3cc1Oc1c(OC)c(OC)cc4c1[C@H](Cc1ccc(cc1)Oc1cc(ccc1C(=O)NCCOCCO)C[C@H]3N(C)CC2)N(C)CC4 | 2740 |
| COc1cc2c3cc1Oc1c(OC)c(OC)cc4c1[C@H](Cc1ccc(cc1)Oc1cc(ccc1C(=O)Nc1cccnc1)C[C@H]3N(C)CC2)N(C)CC4 | 940 |
| COc1cc2c3cc1Oc1c(OC)c(OC)cc4c1[C@H](Cc1ccc(cc1)OC1C=C(Cc5[nH]c(=O)oc51)C[C@H]3N(C)CC2)N(C)CC4 (stereo not given in full) | 670 |
| CCCCCNC(=O)c1ccc2cc1Oc1ccc(cc1)C[C@H]1c3c(cc(OC)c(OC)c3Oc3cc4c(cc3OC)CCN(C)[C@@H]4C2)CCN1C | 2520 |
| COc1cc2c3cc1Oc1c(OC)c(OC)cc4c1[C@H](Cc1ccc(cc1)Oc1cc(ccc1C(=O)NC1CCC1)C[C@H]3N(C)CC2)N(C)CC4 | 530 |
| CNC(=O)c1ccc2cc1Oc1ccc(cc1)C[C@H]1c3c(cc(OC)c(OC)c3Oc3cc4c(cc3OC)CCN(C)[C@@H]4C2)CCN1C | 2510 |
| COc1cc2c3cc1Oc1c(OC)c(OC)cc4c1[C@H](Cc1ccc(cc1)Oc1cc(cc([N+](=O)[O-])c1O)C[C@H]3N(C)CC2)N(C)CC4 | > 5000 |
| COc1cc2c3cc1Oc1c(OC)c(OC)cc4c1[C@H](Cc1ccc(cc1)Oc1cc(ccc1O)C[C@H]3N(C)CC2)N(C)CC4 [AROMOLINE] | 14500 |
